Laboratory results: PubChem BioAssay AID248 (DTP/NCI, 2004)
“And” between values parts separate entries of the source, which are not always exact repeats. Identical values can stand only once. Inconclusive results and toxic doses are left out. Cut-off read from the data, not from the text of the source: active = T/C of 150% or more; inactive = T/C below 125%.

Test system: L1210 leukemia ip in BDF1 mice, survival T/C
Experiment: NCI In Vivo Anticancer Drug Screen. Data for tumor model L1210 Leukemia (intraperitoneal) in B6D2F1 (BDF1) mice
Details: endpoint: mean survival time, higher = longer survival
How it was run: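 Value reflects the ratio of survival in compound-treated mice to survival in vehicle-treated controls, with both groups carrying the same transplanted tumor.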

[1] = dose: 100.0 mg/kg/injection, schedule: Q01DX001 (ip), vehicle: saline with Tween-80
[2] = dose: 100.0 mg/kg/injection, schedule: Q01DX009 (ip), vehicle: saline with Tween-80
[3] = dose: 100.0 mg/kg/injection, schedule: Q04DX003 (ip), vehicle: saline with Tween-80
[4] = dose: 200.0 mg/kg/injection, schedule: Q01DX001 (ip), vehicle: saline with Tween-80
[5] = dose: 200.0 mg/kg/injection, schedule: Q01DX009 (ip), vehicle: saline with Tween-80
[6] = dose: 200.0 mg/kg/injection, schedule: Q04DX003 (ip), vehicle: saline with Tween-80
[7] = dose: 400.0 mg/kg/injection, schedule: Q01DX009 (ip), vehicle: saline with Tween-80
[8] = dose: 400.0 mg/kg/injection, schedule: Q04DX003 (ip), vehicle: saline with Tween-80
[9] = dose: 100.0 mg/kg/injection, schedule: Q04DX003 (ip), vehicle: Klucel (hydroxypropylcellulose) (HPC)
[10] = dose: 100.0 mg/kg/injection, schedule: Q04DX002 (ip), vehicle: Klucel (hydroxypropylcellulose) (HPC)
[11] = dose: 200.0 mg/kg/injection, schedule: Q04DX002 (ip), vehicle: Klucel (hydroxypropylcellulose) (HPC)
[12] = dose: 75.0 mg/kg/injection, schedule: Q01DX001 (ip), vehicle: saline
[13] = dose: 150.0 mg/kg/injection, schedule: Q01DX001 (ip), vehicle: saline

Measured: T/C

COc1ccc(OC)c(NC(=S)NC(=O)c2ccc(Cl)cc2Cl)c1
inactive: [1] 89 % of control | [2] 100 % of control and 102 % of control | dose: 100.0 mg/kg/injection, schedule: Q04DX002 (ip), vehicle: saline with Tween-80 93 % of control and 100 % of control | [3] 105 % of control | [4] 86 % of control | [5] 96 % of control and 99 % of control | dose: 200.0 mg/kg/injection, schedule: Q04DX002 (ip), vehicle: saline with Tween-80 106 % of control and 107 % of control | [6] 92 % of control | dose: 400.0 mg/kg/injection, schedule: Q01DX001 (ip), vehicle: saline with Tween-80 96 % of control | [7] 89 % of control | dose: 400.0 mg/kg/injection, schedule: Q04DX002 (ip), vehicle: saline with Tween-80 93 % of control | [8] 95 % of control

C/C(=C(/CCO)SCCC(=O)c1ccccc1)N(C=O)Cc1cnc(C)nc1N
inactive: dose: 100.0 mg/kg/injection, schedule: Q04DX003 (ip), vehicle: saline 101 % of control | dose: 200.0 mg/kg/injection, schedule: Q04DX003 (ip), vehicle: saline 93 % of control | dose: 400.0 mg/kg/injection, schedule: Q04DX003 (ip), vehicle: saline 93 % of control

CS(=O)(=O)OCCN=C(N)N[N+](=O)[O-]
inactive: dose: 20.0 mg/kg/injection, schedule: Q04DX003 (ip), vehicle: Klucel (hydroxypropylcellulose) (HPC) 95 % of control | dose: 40.0 mg/kg/injection, schedule: Q04DX003 (ip), vehicle: Klucel (hydroxypropylcellulose) (HPC) 95 % of control | dose: 80.0 mg/kg/injection, schedule: Q04DX003 (ip), vehicle: Klucel (hydroxypropylcellulose) (HPC) 97 % of control | [9] 105 % of control

CC12CCC3c4ccc(OC(=O)c5ccc(N)cc5)cc4CCC3C1CCC2=O (centres undefined)
inactive: dose: 12.5 mg/kg/injection, schedule: Q04DX002 (ip), vehicle: saline with Tween-80 110 % of control | dose: 25.0 mg/kg/injection, schedule: Q04DX002 (ip), vehicle: saline with Tween-80 106 % of control | dose: 50.0 mg/kg/injection, schedule: Q04DX002 (ip), vehicle: saline with Tween-80 95 % of control | dose: 100.0 mg/kg/injection, schedule: Q01DX001 (sc), vehicle: steriod suspending solution 95 % of control | dose: 200.0 mg/kg/injection, schedule: Q01DX001 (sc), vehicle: steriod suspending solution 97 % of control | dose: 400.0 mg/kg/injection, schedule: Q01DX001 (sc), vehicle: steriod suspending solution 95 % of control

CC(C)OC(=O)Nc1ccc(Br)cc1
inactive: [10] 88 % of control | [11] 95 % of control

N#CCC(C#N)N1CCCCC1 (centres undefined)
inactive: dose: 0.39 mg/kg/injection, schedule: Q01DX009 (ip), vehicle: other 100 % of control | dose: 0.78 mg/kg/injection, schedule: Q01DX009 (ip), vehicle: other 96 % of control | dose: 1.56 mg/kg/injection, schedule: Q01DX009 (ip), vehicle: other 94 % of control | dose: 3.12 mg/kg/injection, schedule: Q04DX003 (ip), vehicle: other 94 % of control | dose: 6.25 mg/kg/injection, schedule: Q04DX003 (ip), vehicle: other 100 % of control | dose: 12.5 mg/kg/injection, schedule: Q01DX001 (ip), vehicle: other 103 % of control | dose: 12.5 mg/kg/injection, schedule: Q04DX003 (ip), vehicle: other 100 % of control

CCc1nc(C)ncc1-c1ccc([N+](=O)[O-])cc1O
inactive: [9] 97 % of control | dose: 200.0 mg/kg/injection, schedule: Q04DX003 (ip), vehicle: Klucel (hydroxypropylcellulose) (HPC) 97 % of control | dose: 400.0 mg/kg/injection, schedule: Q04DX003 (ip), vehicle: Klucel (hydroxypropylcellulose) (HPC) 91 % of control

CCOC(=S)SCC(=O)CSC(=S)OCC
inactive: dose: 25.0 mg/kg/injection, schedule: Q04DX002 (ip), vehicle: Klucel (hydroxypropylcellulose) (HPC) 103 % of control | dose: 50.0 mg/kg/injection, schedule: Q04DX002 (ip), vehicle: Klucel (hydroxypropylcellulose) (HPC) 97 % of control | [10] 110 % of control

O=C(/C=C/c1ccccc1)N1CC2CCC(CC2)C1
inactive: [3] 95 % of control | [6] 93 % of control

O=[N+]([O-])/C=C/c1cc2ccccc2[nH]1
inactive: dose: 100.0 mg/kg/injection, schedule: Q01DX009 (ip), vehicle: other 96 % of control | dose: 200.0 mg/kg/injection, schedule: Q01DX009 (ip), vehicle: other 113 % of control | dose: 400.0 mg/kg/injection, schedule: Q01DX009 (ip), vehicle: other 107 % of control

COc1ccc(CNC(C)(C)CO)c(OC)c1
inactive: [12] 101 % of control | [13] 102 % of control | dose: 300.0 mg/kg/injection, schedule: Q01DX001 (ip), vehicle: saline 98 % of control

COc1ccc(-c2nc(-c3cccc(O)c3)[nH]c2-c2ccc(OC)cc2)cc1
inactive: [2] 93 % of control | [5] 98 % of control | [7] 105 % of control

Cc1ccc(S(=O)(=O)N(CCCc2c(C)nc(N)nc2NCCCc2ccccc2)c2ccccc2)cc1
inactive: dose: 50.0 mg/kg/injection, schedule: Q01DX001 (ip), vehicle: saline with Tween-80 98 % of control | [1] 98 % of control | [4] 90 % of control

COc1cc(Nc2cc(N)nc(N)n2)cc(OC)c1OC
inactive: [3] 95 % of control | [6] 98 % of control | [8] 88 % of control

Nc1n[nH]c2ccccc12
inactive: dose: 50.0 mg/kg/injection, schedule: Q04DX002 (ip), vehicle: gum acacia 104 % of control | dose: 100.0 mg/kg/injection, schedule: Q04DX002 (ip), vehicle: gum acacia 107 % of control | dose: 200.0 mg/kg/injection, schedule: Q04DX002 (ip), vehicle: gum acacia 100 % of control

CC(C)(C)OC(=O)NC(CC(=O)O)C(=O)O (centres undefined)
inactive: dose: 25.0 mg/kg/injection, schedule: Q01DX009 (ip), vehicle: saline with Tween-80 99 % of control | dose: 50.0 mg/kg/injection, schedule: Q01DX009 (ip), vehicle: saline with Tween-80 89 % of control | [2] 101 % of control and 117 % of control | [10] 90 % of control | [5] 96 % of control | [11] 101 % of control | [7] 91 % of control | dose: 400.0 mg/kg/injection, schedule: Q04DX002 (ip), vehicle: Klucel (hydroxypropylcellulose) (HPC) 101 % of control

CN(C)c1ncnc2c1c(Br)cn2C1OC(CO)C(O)C1O (centres undefined)
inactive: dose: 5.0 mg/kg/injection, schedule: Q01DX001 (ip), vehicle: saline 101 % of control | dose: 10.0 mg/kg/injection, schedule: Q01DX001 (ip), vehicle: saline 102 % of control | dose: 20.0 mg/kg/injection, schedule: Q01DX001 (ip), vehicle: saline 104 % of control | dose: 40.0 mg/kg/injection, schedule: Q01DX001 (ip), vehicle: saline 108 % of control

CCOC(=O)C12CCCC(C1=O)[N+](CC)(CC)CC2 (centres undefined)
inactive: [12] 100 % of control | [13] 101 % of control
